IC50 data for 27 compounds are collected here from patent US20170334899A1, “AMINO-SUBSTITUTED ISOTHIAZOLES” (Bayer Pharma Aktiengesellschaft, priority 2014, published 2017).

This assay addresses T1, catalytic domain of human Bub1 (amino acids 704-1085) (Homo sapiens, UniProt O43683).
T1 construct: catalytic domain of human Bub1 (amino acids 704-1085); His6 (N); made in house; host or cells: insect cells (Hi5)
The experiment in a line: Bub1 kinase assay (TR-FRET). In kind it is biochemical. The note with it: 10 μM ATP, avg, read-out: Bub1 avg (IC50 [mol/l]). The gist of the method:
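Readout is the 665/620 nm TR-FRET ratio from anti-phosphoserine antibody, Eu-labelled anti-mouse IgG and streptavidin-XL665, scaled between no-enzyme and uninhibited controls. Reaction: 1 μM biotinylated peptide, 10 μM ATP, 60 min, 22 °C, after 15 min compound preincubation with His6-Bub1 (704-1085, insect-expressed, ~200 ng/ml).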

pIC50: −log10 of the molar value.

T1 sequence (O43683 704-1085): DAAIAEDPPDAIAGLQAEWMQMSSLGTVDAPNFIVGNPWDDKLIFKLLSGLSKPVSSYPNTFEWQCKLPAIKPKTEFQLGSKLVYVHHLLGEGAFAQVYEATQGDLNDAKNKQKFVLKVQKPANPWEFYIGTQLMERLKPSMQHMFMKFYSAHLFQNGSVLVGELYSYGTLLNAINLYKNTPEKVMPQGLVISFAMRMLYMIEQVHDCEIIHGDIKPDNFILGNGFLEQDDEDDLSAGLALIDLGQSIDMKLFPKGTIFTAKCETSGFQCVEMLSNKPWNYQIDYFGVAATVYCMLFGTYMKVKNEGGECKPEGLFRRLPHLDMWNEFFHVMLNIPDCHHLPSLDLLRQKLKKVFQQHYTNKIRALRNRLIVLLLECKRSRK

Consider `Cc1nsc(Nc2cnc(C(F)(F)F)cn2)c1C(=O)Nc1ccc(O[C@H]2CCN(CCC(F)(F)F)C2)nc1` [Example 384, 3-methyl-5-{[5-(trifluoromethyl)pyrazin-2-yl]amino}-N-(6-{[(3S)-1-(3,3,3-trifluoropropyl)pyrrolidin-3-yl]oxy}pyridin-3-yl)-1,2-thiazole-4-carboxamide], for which the pIC50 is no more than 4.70.

With `CCN1CCC(COc2ccc(NC(=O)c3c(C)nsc3Nc3cnc(C(F)(F)F)cn3)cn2)C(F)(F)C1` (stereo not drawn) [Example 393, N-{6-[(1-ethyl-3,3-difluoropiperidin-4-yl)methoxy]pyridin-3-yl}-3-methyl-5-{[5-(trifluoromethyl)pyrazin-2-yl]amino}-1,2-thiazole-4-carboxamide], the pIC50 is less than 4.70.

On to `Cc1nsc(Nc2cnc(C(F)(F)F)cn2)c1C(=O)Nc1ccc(OC2CCCN(CCF)C2)nc1` (stereo not drawn) [Example 329, N-(6-{[1-(2-fluoroethyl)piperidin-3-yl]oxy}pyridin-3-yl)-3-methyl-5-{[5-(trifluoromethyl)pyrazin-2-yl]amino}-1,2-thiazole-4-carboxamide], for which the pIC50 is no more than 4.70.

With `Cc1nsc(Nc2cnc3ccccc3n2)c1C(=O)Nc1ccc(OC2CCCN(CC(F)F)C2)nc1` (stereo not drawn) [Example 33, N-(6-{[1-(2,2-Difluoroethyl)piperidin-3-yl]oxy}pyridin-3-yl)-3-methyl-5-(quinoxalin-2-ylamino)-1,2-thiazole-4-carboxamide], the pIC50 is no more than 4.70.

Regarding `Cc1nsc(Nc2cnc(C(F)(F)F)cn2)c1C(=O)Nc1ccc(OCCNCCC(F)(F)F)nc1` [Example 323, 3-methyl-5-{[5-(trifluoromethyl)pyrazin-2-yl]amino}-N-(6-{2-[(3,3,3-trifluoropropyl)amino]ethoxy}pyridin-3-yl)-1,2-thiazole-4-carboxamide], the pIC50 was 4.74.

In the case of `Cc1nsc(Nc2ccc(C#N)cn2)c1C(=O)Nc1ccc(OC2CCNCC2)nc1` [Example 28, 5-[(5-Cyanopyridin-2-yl)amino]-3-methyl-N-[6-(piperidin-4-yloxy)pyridin-3-yl]-1,2-thiazole-4-carboxannide], the pIC50 is no more than 4.70.

Take `Cc1nsc(Nc2cnc(C(F)(F)F)cn2)c1C(=O)Nc1ccc(F)c(OCC2CCCN(CC(F)F)C2)c1` (stereo not drawn) [Example 334, N-(3-{[1-(2,2-difluoroethyl)piperidin-3-yl]methoxy}-4-fluorophenyl)-3-methyl-5-{[5-(trifluoromethyl)pyrazin-2-yl]amino}-1,2-thiazole-4-carboxamide]: the pIC50 is no more than 4.70.

Regarding `Cc1nsc(Nc2cnc(C(F)(F)F)cn2)c1C(=O)Nc1ccc(OC2CCN(C(CF)CF)CC2)nc1` [Example 324, N-(6-{[1-(1,3-difluoropropan-2-yl)piperidin-4-yl]oxy}pyridin-3-yl)-3-methyl-5-{[5-(trifluoromethyl)pyrazin-2-yl]amino}-1,2-thiazole-4-carboxamide], the pIC50 was 4.72.

In the case of `Cc1nsc(Nc2cnc(C(F)(F)F)cn2)c1C(=O)Nc1ccc(F)c(OC[C@@H]2CCCN(CC(F)(F)F)C2)c1` [Example 342, N-(4-fluoro-3-{[(3R)-1-(2,2,2-trifluoroethyl)piperidin-3-yl]methoxy}phenyl)-3-methyl-5-{[5-(trifluoromethyl)pyrazin-2-yl]amino}-1,2-thiazole-4-carboxamide], the pIC50 was less than 4.70.

As to `Cc1nsc(Nc2cnc(C(F)(F)F)cn2)c1C(=O)Nc1ccc(OCCN(C)CCC(F)(F)F)nc1` [Example 351, 3-methyl-N-(6-{2-[methyl(3,3,3-trifluoropropyl)amino]ethoxy}pyridin-3-yl)-5-{[5-(trifluoromethyl)pyrazin-2-yl]amino}-1,2-thiazole-4-carboxamide], the pIC50 is no more than 4.70.

For `Cc1nsc(Nc2cnc(C(F)(F)F)cn2)c1C(=O)Nc1ccc(O[C@H]2CCN(CC(F)F)C[C@@H]2F)nc1` [Example 362], the pIC50 was 4.85.

`Cc1nsc(Nc2cnc(C(F)(F)F)cn2)c1C(=O)Nc1ccc(F)c(OCC2CCCN(CCC(F)(F)F)C2)c1` (stereo not drawn) [Example 338, N-(4-fluoro-3-{[1-(3,3,3-trifluoropropyl)piperidin-3-yl]methoxy}phenyl)-3-methyl-5-{[5-(trifluoromethyl)pyrazin-2-yl]amino}-1,2-thiazole-4-carboxamide]: the pIC50 is no more than 4.70.

For `Cc1nsc(Nc2cnc(C(F)(F)F)cn2)c1C(=O)Nc1ccc(F)c(OC[C@H]2CCN(CCC(F)(F)F)C2)c1` [Example 399, N-(4-fluoro-3-{[(3S)-1-(3,3,3-trifluoropropyl)pyrrolidin-3-yl]methoxy}phenyl)-3-methyl-5-{[5-(trifluoromethyl)pyrazin-2-yl]amino}-1,2-thiazole-4-carboxamide], the pIC50 is less than 4.70.

Consider `Cc1nsc(Nc2cnc(C(F)(F)F)cn2)c1C(=O)Nc1ccc(C2CCN(CC(F)F)CC2)nc1` [Example 357, N-{6-[1-(2,2-difluoroethyl)piperidin-4 yl]pyridin-3-yl}-3-methyl-5-{[5-(trifluoromethyl)pyrazin-2-yl]amino}-1,2-thiazole-4-carboxamide], for which the pIC50 was less than 4.70.

Turning to `Cc1nsc(Nc2cnc(C(F)(F)F)cn2)c1C(=O)Nc1ccc(O[C@@H]2CCN(CC(F)(F)F)C[C@H]2F)nc1` [Example 367, N-(6-{[(3R,4R)-3-fluoro-1-(2,2,2-trifluoroethyl)piperidin-4-yl]oxy}pyridin-3-yl)-3-methyl-5-{[5-(trifluoromethyl)pyrazin-2-yl]amino}-1,2-thiazole-4-carboxamide], the pIC50 was less than 4.70.

For the compound `Cc1nsc(Nc2cc(C#N)ccn2)c1C(=O)Nc1ccc(OC2CCCN(C(=O)OC(C)(C)C)C2)nc1` (stereo not drawn) [Example 34, tert-Butyl 3({5-[({5-[(4-cyanopyridin-2-yl)amino]-3-methyl-1,2-thiazol-4-yl}-carbonyl)amino]pyridin-2-yl}oxy)piperidine-1-carboxylate], the pIC50 was no more than 4.70.

For the compound `Cc1nsc(Nc2cnc3ccccc3n2)c1C(=O)Nc1ccc(OC2CCCNC2)nc1` (stereo not drawn) [Example 32, 3-Methyl-N-[6-(piperidin-3-yloxy)pyridin-3-yl]-5-(quinoxalin-2-ylamino)-1,2-thiazole-4-carboxannide], the pIC50 is no more than 4.70.

With `Cc1nsc(Nc2cncc(C(F)(F)F)n2)c1C(=O)Nc1ccc(F)c(OC2CCN(CCC(F)(F)F)CC2)c1` [Example 343, N-(4-fluoro-3-{[1-(3,3,3-trifluoropropyl)piperidin-4-yl]oxy}phenyl)-3-methyl-5-{[6-(trifluoromethyl)pyrazin-2-yl]amino}-1,2-thiazole-4-carboxamide], the pIC50 was no more than 4.70.

Take `Cc1nsc(Nc2cnc(C(F)(F)F)cn2)c1C(=O)Nc1ccc(N2CCN(CC(F)(F)F)CC2)cn1` [Example 373, 3-methyl-N-{5-[4-(2,2,2-trifluoroethyl)piperazin-1-yl]pyridin-2-yl}-5-{[5-(trifluoromethyl)pyrazin-2-yl]amino}-1,2-thiazole-4-carboxamide]: the pIC50 is less than 4.70.

On to `Cc1nsc(Nc2cnc(C(F)(F)F)cn2)c1C(=O)Nc1ccc(OC2CCCN(CCC(F)(F)F)C2)nc1` (stereo not drawn) [Example 332, 3-methyl-5-{[5-(trifluoromethyl)pyrazin-2-yl]amino}-N-(6-{[1-(3,3,3-trifluoropropyl)piperidin-3-yl]oxy}pyridin-3-yl)-1,2-thiazole-4-carboxamide], for which the pIC50 was no more than 4.70.

As for `Cc1nsc(Nc2cnc(C(F)(F)F)cn2)c1C(=O)Nc1ccc(O[C@H]2CCN(CCC(F)(F)F)C[C@@H]2F)nc1` [Example 364, N-(6-{[(3S,4S)-3-fluoro-1-(3,3,3-trifluoropropyl)piperidin-4-yl]oxy}pyridin-3-yl)-3-methyl-5-{[5-(trifluoromethyl)pyrazin-2-yl]amino}-1,2-thiazole-4-carboxamide], the pIC50 was less than 4.70.

As to `Cc1nsc(Nc2cnc(C(F)(F)F)cn2)c1C(=O)Nc1ccc(OC[C@@H]2CCCN(CCC(F)(F)F)C2)nc1` [Example 377, 3-methyl-5-{[5-(trifluoromethyl)pyrazin-2-yl]amino}-N-(6-{[(3R)-1-(3,3,3-trifluoropropyl)piperidin-3-yl]methoxy}pyridin-3-yl)-1,2-thiazole-4-carboxamide], the pIC50 was less than 4.70.

For `Cc1nsc(Nc2cnc(C(F)(F)F)cn2)c1C(=O)Nc1ccc(O[C@@H]2CCCN(CCC(F)(F)F)C2)nc1` [Example 387, 3-methyl-5-{[5-(trifluoromethyl)pyrazin-2-yl]amino}-N-(6-{[(3R)-1-(3,3,3-trifluoropropyl)piperidin-3-yl]oxy}pyridin-3-yl)-1,2-thiazole-4-carboxamide], the pIC50 is less than 4.70.

As to `Cc1nsc(Nc2cnc(C(F)(F)F)cn2)c1C(=O)Nc1ccc(OC2CCCN(CC(F)(F)F)C2)nc1` (stereo not drawn) [Example 331, 3-methyl-N-(6-{[1-(2,2,2-trifluoroethyl)piperidin-3-yl]oxy}pyridin-3-yl)-5-{[5-(trifluoromethyl)pyrazin-2-yl]amino}-1,2-thiazole-4-carboxamide], the pIC50 is no more than 4.70.

For `Cc1nsc(Nc2cnc(C(F)(F)F)cn2)c1C(=O)Nc1ccc(F)c(OC[C@H]2CCN(CC(F)F)C2)c1` [Example 397, N-(3-{[(3S)-1-(2,2-difluoroethyl)pyrrolidin-3-yl]methoxy}-4-fluorophenyl)-3-methyl-5-{[5-(trifluoromethyl)pyrazin-2-yl]amino}-1,2-thiazole-4-carboxamide], the pIC50 is less than 4.70.

For the compound `Cc1nsc(Nc2cnc(C(F)(F)F)cn2)c1C(=O)Nc1ccc(O[C@@H]2CCN(CC(F)F)C2)nc1` [Example 379, N-(6-{[(3R)-1-(2,2-difluoroethyl)pyrrolidin-3-yl]oxy}pyridin-3-yl)-3-methyl-5-{[5-(trifluoromethyl)pyrazin-2-yl]amino}-1,2-thiazole-4-carboxamide], the pIC50 is no more than 4.70.

On to `Cc1nsc(Nc2cnc(C(F)(F)F)cn2)c1C(=O)Nc1ccc(OCC2CCN(CC(F)(F)F)CC2)nc1` [Example 346, 3-methyl-N-(6-{[1-(2,2,2-trifluoroethyl)piperidin-4-yl]methoxy}pyridin-3-yl)-5-{[5-(trifluoromethyl)pyrazin-2-yl]amino}-1,2-thiazole-4-carboxamide], for which the pIC50 was no more than 4.70.
